# Test results from patent US9309242B2, “Substituted pyrido[2,3-b]pyrazines as FGFR kinase inhibitors” (priority 2011, dated 2016).
# Where a name gives a salt, the structure may show the parent alone. Read-outs that look alike come from different tables or passages of the source.
# Experiments:
# [1] = system: Ba/F3-FGFR1-transfected cells; test: Ba/F3-FGFR1 (plus IL3) cellular proliferation assay, counterscreen with 10 ng/ml murine IL3; type: cell-based; conditions: read-out: BAF3-FGFR1 (PLUS IL3) pIC50 (converted)
# In short: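 Proliferation read-out: resazurin-based Alamar Blue fluorescence (540/590 nm) after 4 h, following 24 h compound treatment of 20000 Ba/F3-FGFR1 cells per well in 10% FBS RPMI at 37° C. IL3 counterscreen used the same protocol plus 10 ng/ml murine IL3.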
# FGFR4 (h) = FGFR4 (h) (Homo sapiens, UniProt P22455); test: FGFR4 (enzymatic assay), TR-FRET; type: biochemical; conditions: FGFR 4 pIC50, enzymatic assay
# [2] = molecular target: T1, Ba/F3-KDR-transfected cells (Homo sapiens, UniProt P35968); test: Ba/F3-KDR (minus IL3) cellular proliferation assay, Alamar Blue; type: cell-based
# T1 construct: BAF3-KDR (MIN IL3) pIC50; other: minus IL3
# In short: (§1)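 Cells grown with test compound at 37° C and 5% CO2 for 24 hours were given a resazurin/ferricyanide/ferrocyanide reagent for 4 hours before fluorescence (540/590 nm) was recorded.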
# [3] = molecular target: T2, Ba/F3-FGFR3-transfected cells (Homo sapiens, UniProt P22607); test: Ba/F3-FGFR3 (minus IL3) cellular proliferation assay, Alamar Blue; type: cell-based
# T2 construct: BAF3-FGFR3 (MIN IL3) pIC50; other: minus IL3
# In short: (§2)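 FGFR3-Ba/F3, 20000 cells/well, RPMI-1640 + 10% FBS, no phenol red; cpd in DMSO; 24 h, 37° C/5% CO2. Alamar Blue 4 h, RFU ex540/em590. Counterscreen: + murine IL3 10 ng/ml.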
# FGFR2 (h) = FGFR2 (h) (Homo sapiens, UniProt P21802); test: FGFR2 (enzymatic assay), TR-FRET; type: biochemical; conditions: enzymatic assay, read-out: FGFR 2 pIC50 (converted)
# In short: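 hFGFR2 150 ng/ml; Btn-Flt3 500 nM; ATP 0.4 μM; 50 mM HEPES pH 7.5, 6 mM MnCl2, 1 mM DTT, 0.1 mM Na3VO4, 0.01% Triton-X-100; 1% DMSO final.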
# [4] = system: Ba/F3-FGFR3-transfected cells; test: Ba/F3-FGFR3 (plus IL3) cellular proliferation assay, counterscreen with 10 ng/ml murine IL3; type: cell-based; conditions: read-out: BAF3-FGFR3 (PLUS IL3) pIC50 (converted)
# In short: as §2
# KDR (h) = KDR (h) (Homo sapiens, UniProt P35968); test: KDR (VEGFR2) (enzymatic assay), TR-FRET; type: biochemical; conditions: read-out: VEGFR 2 (KDR) pIC50 (converted)
# In short: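 Low-ATP (3 μM) TR-FRET kinase assay using 500 nM Btn-Flt3 peptide and 150 ng/ml enzyme, run 2 h at room temperature with 6 mM MnCl2 and 0.1 mM Na3VO4. Signal from Eu-anti-P-Tyr/SA-XL-665 is recorded in RFU.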
# FGFR3 (h) = FGFR3 (h) (Homo sapiens, UniProt P22607); test: FGFR3 (enzymatic assay), TR-FRET; type: biochemical; conditions: read-out: FGFR 3 pIC50 (converted)
# Description: Time-Resolved Fluorescence Resonance Energy Transfer (TR-FRET) signal (ex340 nm.
# [5] = molecular target: T3, Ba/F3-FGFR1-transfected cells (Homo sapiens, UniProt P11362); test: Ba/F3-FGFR1 (minus IL3) cellular proliferation assay, Alamar Blue; type: cell-based
# T3 construct: BAF3-FGFR1 (MIN IL3) pIC50; other: minus IL3
# In short: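 Ba/F3-FGFR1 cells, 20000/well, RPMI-1640 + 10% FBS + 2 mM L-Gln; compound in DMSO; 24 h, 37 °C, 5% CO2; Alamar Blue 4 h; RFU ex 540/em 590.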
# FGFR1 (h) = FGFR1 (h) (Homo sapiens, UniProt P11362); test: FGFR1 (enzymatic assay), TR-FRET; type: biochemical; conditions: read-out: FGFR 1 pIC50 (converted)
# [6] = molecular target: Ba/F3-FGFR4-transfected cells (Homo sapiens, UniProt P22455); test: Ba/F3-FGFR4 cellular proliferation assay, Alamar Blue; type: cell-based
# In short: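 Here, cells seeded at 20000 per well were treated 24 hours with compound, then given a 4-hour Alamar Blue incubation at 37° C before RFU measurement at ex. 540 nm and em. 590 nm.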
# [7] = system: Ba/F3-KDR-transfected cells; test: Ba/F3-KDR (plus IL3) cellular proliferation assay, counterscreen with 10 ng/ml murine IL3; type: cell-based; conditions: read-out: BAF3-KDR (PLUS IL3) pIC50 (converted)
# In short: as §1
# [8] = plus IL3 (10 ng/ml murine IL3, counterscreen)
# [9] = average values if tested multiple times
# Sequence of FGFR3 (h) (P22607 23-806): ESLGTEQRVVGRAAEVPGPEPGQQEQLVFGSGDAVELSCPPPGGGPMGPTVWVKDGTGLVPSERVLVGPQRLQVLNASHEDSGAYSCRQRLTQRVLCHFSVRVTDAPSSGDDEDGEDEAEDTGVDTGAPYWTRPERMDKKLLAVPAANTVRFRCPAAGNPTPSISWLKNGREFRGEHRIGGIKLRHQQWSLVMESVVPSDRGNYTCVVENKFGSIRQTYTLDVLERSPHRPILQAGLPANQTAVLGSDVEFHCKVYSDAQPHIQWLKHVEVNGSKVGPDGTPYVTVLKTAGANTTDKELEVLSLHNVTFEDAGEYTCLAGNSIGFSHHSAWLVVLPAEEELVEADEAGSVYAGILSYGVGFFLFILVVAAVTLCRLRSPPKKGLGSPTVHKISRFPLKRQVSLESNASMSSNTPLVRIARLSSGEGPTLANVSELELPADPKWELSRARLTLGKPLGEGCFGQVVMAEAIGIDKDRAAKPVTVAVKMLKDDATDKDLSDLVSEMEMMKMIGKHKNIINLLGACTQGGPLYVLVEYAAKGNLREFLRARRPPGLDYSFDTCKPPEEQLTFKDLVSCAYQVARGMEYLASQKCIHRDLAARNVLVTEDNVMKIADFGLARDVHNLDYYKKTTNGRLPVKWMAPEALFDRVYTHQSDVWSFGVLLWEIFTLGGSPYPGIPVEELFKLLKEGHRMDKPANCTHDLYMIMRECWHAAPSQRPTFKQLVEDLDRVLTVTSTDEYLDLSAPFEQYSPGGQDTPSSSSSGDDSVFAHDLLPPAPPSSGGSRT
# T3 sequence (P11362 whole entry, change not shown): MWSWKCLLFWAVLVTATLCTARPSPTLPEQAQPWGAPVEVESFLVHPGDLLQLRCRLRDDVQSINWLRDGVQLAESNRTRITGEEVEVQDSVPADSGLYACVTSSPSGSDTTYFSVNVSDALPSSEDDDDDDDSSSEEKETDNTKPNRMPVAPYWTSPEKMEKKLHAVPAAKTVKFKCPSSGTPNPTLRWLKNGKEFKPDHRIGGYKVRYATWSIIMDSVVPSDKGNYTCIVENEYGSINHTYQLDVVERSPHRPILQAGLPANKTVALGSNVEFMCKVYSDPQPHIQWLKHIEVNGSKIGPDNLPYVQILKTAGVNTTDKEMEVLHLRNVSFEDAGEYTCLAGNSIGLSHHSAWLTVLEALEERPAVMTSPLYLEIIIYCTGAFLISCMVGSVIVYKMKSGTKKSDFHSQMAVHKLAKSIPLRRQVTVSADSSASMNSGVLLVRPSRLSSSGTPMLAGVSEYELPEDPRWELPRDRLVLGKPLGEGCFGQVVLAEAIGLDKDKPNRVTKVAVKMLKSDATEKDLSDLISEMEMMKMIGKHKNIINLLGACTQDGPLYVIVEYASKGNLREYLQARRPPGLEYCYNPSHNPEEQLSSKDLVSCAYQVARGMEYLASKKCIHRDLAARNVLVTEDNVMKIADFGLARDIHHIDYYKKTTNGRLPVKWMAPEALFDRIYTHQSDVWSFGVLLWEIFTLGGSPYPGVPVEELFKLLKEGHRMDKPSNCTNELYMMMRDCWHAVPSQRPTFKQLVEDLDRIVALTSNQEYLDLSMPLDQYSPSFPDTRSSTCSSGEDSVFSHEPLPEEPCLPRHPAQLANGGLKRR
# Sequence of FGFR2 (h) (P21802 22-821): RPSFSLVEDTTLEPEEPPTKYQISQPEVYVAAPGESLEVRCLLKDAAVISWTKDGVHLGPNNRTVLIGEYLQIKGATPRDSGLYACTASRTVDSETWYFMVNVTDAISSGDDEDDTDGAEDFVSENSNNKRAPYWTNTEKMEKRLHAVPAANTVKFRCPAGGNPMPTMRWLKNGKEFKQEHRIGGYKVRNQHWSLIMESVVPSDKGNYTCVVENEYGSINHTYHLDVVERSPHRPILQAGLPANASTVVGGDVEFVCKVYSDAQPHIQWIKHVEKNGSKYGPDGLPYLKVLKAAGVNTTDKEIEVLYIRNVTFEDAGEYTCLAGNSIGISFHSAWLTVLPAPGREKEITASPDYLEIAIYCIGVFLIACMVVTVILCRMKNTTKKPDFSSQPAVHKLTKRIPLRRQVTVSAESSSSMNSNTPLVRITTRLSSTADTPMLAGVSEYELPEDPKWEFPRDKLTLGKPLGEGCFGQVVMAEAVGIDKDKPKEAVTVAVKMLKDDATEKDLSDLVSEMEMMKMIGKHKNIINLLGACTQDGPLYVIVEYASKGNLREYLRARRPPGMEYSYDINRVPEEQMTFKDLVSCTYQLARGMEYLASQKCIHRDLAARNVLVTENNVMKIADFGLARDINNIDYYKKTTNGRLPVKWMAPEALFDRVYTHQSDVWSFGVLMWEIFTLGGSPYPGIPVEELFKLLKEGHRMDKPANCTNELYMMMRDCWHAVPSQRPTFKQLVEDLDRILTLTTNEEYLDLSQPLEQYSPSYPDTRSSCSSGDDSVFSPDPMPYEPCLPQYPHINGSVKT
# T1 sequence (P35968 whole entry, change not shown): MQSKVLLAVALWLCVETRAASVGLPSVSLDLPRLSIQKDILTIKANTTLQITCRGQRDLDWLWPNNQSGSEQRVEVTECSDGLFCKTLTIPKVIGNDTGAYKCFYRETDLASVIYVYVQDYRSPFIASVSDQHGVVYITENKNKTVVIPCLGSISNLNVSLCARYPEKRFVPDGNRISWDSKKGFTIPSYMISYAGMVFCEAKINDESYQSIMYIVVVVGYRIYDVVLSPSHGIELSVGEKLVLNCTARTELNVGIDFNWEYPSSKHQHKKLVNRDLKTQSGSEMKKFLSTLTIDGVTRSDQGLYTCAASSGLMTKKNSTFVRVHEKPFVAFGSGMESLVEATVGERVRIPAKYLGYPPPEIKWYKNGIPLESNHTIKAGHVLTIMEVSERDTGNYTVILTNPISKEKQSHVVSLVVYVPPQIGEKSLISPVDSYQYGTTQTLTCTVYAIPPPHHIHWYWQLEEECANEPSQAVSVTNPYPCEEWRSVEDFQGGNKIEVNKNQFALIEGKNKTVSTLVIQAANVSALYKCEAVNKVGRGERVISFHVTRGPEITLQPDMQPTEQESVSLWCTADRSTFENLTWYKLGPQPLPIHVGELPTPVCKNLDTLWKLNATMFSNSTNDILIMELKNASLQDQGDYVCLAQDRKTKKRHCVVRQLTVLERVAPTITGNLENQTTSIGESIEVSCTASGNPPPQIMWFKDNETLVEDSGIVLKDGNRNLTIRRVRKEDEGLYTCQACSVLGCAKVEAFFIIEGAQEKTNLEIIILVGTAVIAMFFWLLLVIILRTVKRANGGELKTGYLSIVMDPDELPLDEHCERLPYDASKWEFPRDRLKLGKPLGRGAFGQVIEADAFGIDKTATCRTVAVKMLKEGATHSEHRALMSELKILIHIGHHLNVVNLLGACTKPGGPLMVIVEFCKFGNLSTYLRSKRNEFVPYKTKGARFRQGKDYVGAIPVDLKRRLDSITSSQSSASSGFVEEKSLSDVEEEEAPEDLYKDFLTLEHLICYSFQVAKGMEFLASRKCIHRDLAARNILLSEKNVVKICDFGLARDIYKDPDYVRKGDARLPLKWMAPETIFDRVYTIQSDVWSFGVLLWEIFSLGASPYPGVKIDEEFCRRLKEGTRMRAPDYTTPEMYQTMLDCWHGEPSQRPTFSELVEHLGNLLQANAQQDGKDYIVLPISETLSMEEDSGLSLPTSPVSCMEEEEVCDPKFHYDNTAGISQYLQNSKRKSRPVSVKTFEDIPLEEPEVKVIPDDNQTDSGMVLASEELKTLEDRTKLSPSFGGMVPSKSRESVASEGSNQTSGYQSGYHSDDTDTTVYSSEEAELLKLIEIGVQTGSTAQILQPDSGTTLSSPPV
# Sequence of KDR (h) (P35968 20-1356): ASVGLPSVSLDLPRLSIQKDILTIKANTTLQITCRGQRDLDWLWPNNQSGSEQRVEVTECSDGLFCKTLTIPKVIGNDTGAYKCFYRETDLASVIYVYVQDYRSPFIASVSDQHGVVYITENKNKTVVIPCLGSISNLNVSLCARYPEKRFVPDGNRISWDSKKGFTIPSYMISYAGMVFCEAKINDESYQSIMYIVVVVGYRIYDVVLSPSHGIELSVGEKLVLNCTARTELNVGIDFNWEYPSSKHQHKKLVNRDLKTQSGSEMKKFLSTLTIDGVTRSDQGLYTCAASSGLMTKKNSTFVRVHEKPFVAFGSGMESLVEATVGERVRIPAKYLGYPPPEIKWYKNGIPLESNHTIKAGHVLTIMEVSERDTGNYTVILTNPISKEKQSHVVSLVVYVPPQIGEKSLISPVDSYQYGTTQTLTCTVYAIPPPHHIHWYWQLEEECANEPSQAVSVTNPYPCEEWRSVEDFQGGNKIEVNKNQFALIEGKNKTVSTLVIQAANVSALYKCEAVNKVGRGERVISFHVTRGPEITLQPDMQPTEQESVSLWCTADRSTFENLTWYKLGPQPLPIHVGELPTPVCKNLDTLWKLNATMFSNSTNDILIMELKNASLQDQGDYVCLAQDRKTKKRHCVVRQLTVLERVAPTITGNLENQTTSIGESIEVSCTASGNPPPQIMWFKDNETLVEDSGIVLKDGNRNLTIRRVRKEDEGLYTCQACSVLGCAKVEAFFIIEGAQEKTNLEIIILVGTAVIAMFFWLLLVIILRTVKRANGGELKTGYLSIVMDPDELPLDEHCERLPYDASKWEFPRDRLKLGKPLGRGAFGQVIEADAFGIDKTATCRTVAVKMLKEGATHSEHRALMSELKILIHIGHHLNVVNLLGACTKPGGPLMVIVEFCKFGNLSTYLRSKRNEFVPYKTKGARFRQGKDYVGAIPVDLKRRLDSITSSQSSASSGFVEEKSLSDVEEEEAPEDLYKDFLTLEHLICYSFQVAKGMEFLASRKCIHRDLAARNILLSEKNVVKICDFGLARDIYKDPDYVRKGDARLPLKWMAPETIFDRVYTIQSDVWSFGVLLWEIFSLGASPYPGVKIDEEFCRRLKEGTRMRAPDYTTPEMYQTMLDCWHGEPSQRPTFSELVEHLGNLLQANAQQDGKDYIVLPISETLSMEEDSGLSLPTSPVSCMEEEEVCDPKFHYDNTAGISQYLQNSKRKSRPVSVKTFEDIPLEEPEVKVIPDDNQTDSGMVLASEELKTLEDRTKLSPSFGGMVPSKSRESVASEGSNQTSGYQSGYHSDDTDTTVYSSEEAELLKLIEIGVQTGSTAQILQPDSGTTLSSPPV
structure (smiles),measurement,setting,value
COc1cc(OC)c(F)c(N(Cc2ncc[nH]2)c2ccc3ncc(-c4cnn(C)c4)nc3n2)c1 (as salt: sulfate) [Compound 23],melting point,,198 °C
COc1cc(OC)cc(N(Cc2ncc[nH]2)c2ccc3ncc(-c4cnn(C)c4)nc3n2)c1 (as salt: sulphate) [Compound 24],melting point,,266 °C
COc1cc(OC)cc(N(Cc2ncc[nH]2)c2ccc3ncc(-c4cnn(C)c4)nc3n2)c1 (as salt: tartrate) [Compound 24],melting point,,176 °C
CNCCN(c1ccc2ncc(-c3cnn(C)c3)nc2n1)c1c(F)c(OC)cc(OC)c1F (hydrate or solvate) [Compound 3],melting point,,134 °C
"COc1cc(OC)c(F)c(/N=c2\ccc3ncc(-c4cnn(C)c4)nc3n2CCCO)c1F (single isomer, unassigned) [Compound 17]",IC50,[1]; [8],> 10000 nM
same,IC50,FGFR4 (h); [9],0.501 nM
same,BAF3-KDR (MIN IL3) pIC50,[2],6.8
same,BAF3-FGFR3 (MIN IL3) pIC50,[3],8.6
same,IC50,FGFR2 (h); [9],1.26 nM
same,melting point,,206 °C
same,IC50,[4]; [8],> 10000 nM
same,IC50,KDR (h); [9],3.98 nM
same,IC50,FGFR3 (h); [9],0.398 nM
same,BAF3-FGFR1 (MIN IL3) pIC50,[5],8.7
same,IC50,FGFR1 (h); [9],0.251 nM
CNCCn1/c(=N/c2c(F)c(OC)cc(OC)c2F)ccc2ncc(-c3cnn(C)c3)nc21 [Compound 4],IC50,[1]; [8],> 10000 nM
same,IC50,FGFR4 (h); [9],7.94 nM
same,BAF3-KDR (MIN IL3) pIC50,[2],5.4
same,BAF3-FGFR3 (MIN IL3) pIC50,[3],6.9
same,IC50,FGFR2 (h); [9],3.98 nM
same,melting point,,174 °C
same,IC50,[4]; [8],> 10000 nM
same,IC50,KDR (h); [9],63.1 nM
same,IC50,FGFR3 (h); [9],3.16 nM
same,BAF3-FGFR1 (MIN IL3) pIC50,[5],7.3
same,IC50,FGFR1 (h); [9],1.26 nM
COc1cc(OC)c(F)c(N(CCS(C)(=O)=O)c2ccc3ncc(-c4cnn(C)c4)nc3n2)c1 [Compound 226],BAF3-FGFR4 pIC50,[6],6.60
same,IC50,[1],> 10000 nM
same,IC50,FGFR4 (h),3.02 nM
same,BAF3-KDR (MIN IL3) pIC50,[2],5.92
same,BAF3-FGFR3 (MIN IL3) pIC50,[3],~7.54
same,IC50,FGFR2 (h),2.19 nM
same,IC50,[7],> 10000 nM
same,IC50,[4],> 10000 nM
same,IC50,KDR (h),26.3 nM
same,IC50,FGFR3 (h),1.12 nM
same,BAF3-FGFR1 (MIN IL3) pIC50,[5],7.32
same,IC50,FGFR1 (h),0.912 nM
COc1cc(OC)cc(N(CCNC(C)=O)c2ccc3ncc(-c4cnn(C)c4)nc3n2)c1 [Compound 235],IC50,[1]; [8],> 10000 nM
same,BAF3-KDR (MIN IL3) pIC50,[2],5.62
same,IC50,[7]; [8],> 10000 nM
same,melting point,,193 °C
same,IC50,[4]; [8],> 10000 nM
same,IC50,KDR (h),79.4 nM
COc1cc(OC)c(F)c(N(CC(N)=O)c2ccc3ncc(-c4cnn(C)c4)nc3n2)c1 [Compound 239],BAF3-FGFR4 pIC50,[6],5.87
same,IC50,[1],> 10000 nM
same,IC50,FGFR4 (h),35.5 nM
same,BAF3-KDR (MIN IL3) pIC50,[2],5.27
same,BAF3-FGFR3 (MIN IL3) pIC50,[3],6.51
same,IC50,FGFR2 (h),7.94 nM
same,IC50,[7],> 10000 nM
same,IC50,[4],> 10000 nM
same,IC50,KDR (h),148 nM
same,IC50,FGFR3 (h),5.25 nM
same,BAF3-FGFR1 (MIN IL3) pIC50,[5],6.44
same,IC50,FGFR1 (h),5.37 nM
COc1cc(/N=c2\ccc3ncc(-c4cnn(C)c4)nc3n2CCNC(C)=O)c(F)c(OC)c1 [Compound 243],BAF3-FGFR4 pIC50,[6],7.14
same,IC50,[1],> 10000 nM
same,IC50,FGFR4 (h),1.95 nM
same,BAF3-KDR (MIN IL3) pIC50,[2],6.00
same,BAF3-FGFR3 (MIN IL3) pIC50,[3],~8.13
same,IC50,FGFR2 (h),1.62 nM
same,IC50,[7],> 10000 nM
same,IC50,[4],> 10000 nM
same,IC50,KDR (h),15.1 nM
same,IC50,FGFR3 (h),1.32 nM
same,BAF3-FGFR1 (MIN IL3) pIC50,[5],7.85
same,IC50,FGFR1 (h),0.977 nM
CCN(c1ccc2ncc(-c3cnn(C)c3)nc2n1)c1c(F)c(OC)cc(OC)c1F [Compound 256],BAF3-FGFR4 pIC50,[6],7.36
same,IC50,[1],> 10000 nM
same,IC50,FGFR4 (h),1.02 nM
same,BAF3-KDR (MIN IL3) pIC50,[2],6.16
same,BAF3-FGFR3 (MIN IL3) pIC50,[3],8.16
same,IC50,FGFR2 (h),1.66 nM
same,IC50,[7],> 10000 nM
same,IC50,[4],> 10000 nM
same,IC50,KDR (h),8.71 nM
same,IC50,FGFR3 (h),0.708 nM
same,BAF3-FGFR1 (MIN IL3) pIC50,[5],8.05
same,IC50,FGFR1 (h),0.49 nM
COc1cc(OC)c(F)c(N(Cc2nnc(NCCO)o2)c2ccc3ncc(-c4cnn(C)c4)nc3n2)c1 [Compound 283],BAF3-FGFR4 pIC50,[6],<5
same,IC50,[1],> 10000 nM
same,IC50,FGFR4 (h),21.4 nM
same,BAF3-KDR (MIN IL3) pIC50,[2],<5
same,BAF3-FGFR3 (MIN IL3) pIC50,[3],5.26
same,IC50,FGFR2 (h),5.13 nM
same,IC50,[7],> 10000 nM
same,IC50,[4],> 10000 nM
same,IC50,KDR (h),105 nM
same,IC50,FGFR3 (h),5.13 nM
same,BAF3-FGFR1 (MIN IL3) pIC50,[5],5.18
same,IC50,FGFR1 (h),~7.08 nM
